{"source": "patent US20130030000A1", "about": "“PHARMACEUTICAL COMPOSITIONS FOR THE TREATMENT OF PAIN AND OTHER INDICATIONS” (priority 2010, published 2013)", "note": "Where a name gives a salt, the structure may show the parent alone."}
{"target": "T1, Human FAAH (Homo sapiens, UniProt O00519)", "T1 construct": "The full length FAAH was subcloned into the mammalian expression vector, peDEF.neo", "T1 sequence (O00519 1-579)": "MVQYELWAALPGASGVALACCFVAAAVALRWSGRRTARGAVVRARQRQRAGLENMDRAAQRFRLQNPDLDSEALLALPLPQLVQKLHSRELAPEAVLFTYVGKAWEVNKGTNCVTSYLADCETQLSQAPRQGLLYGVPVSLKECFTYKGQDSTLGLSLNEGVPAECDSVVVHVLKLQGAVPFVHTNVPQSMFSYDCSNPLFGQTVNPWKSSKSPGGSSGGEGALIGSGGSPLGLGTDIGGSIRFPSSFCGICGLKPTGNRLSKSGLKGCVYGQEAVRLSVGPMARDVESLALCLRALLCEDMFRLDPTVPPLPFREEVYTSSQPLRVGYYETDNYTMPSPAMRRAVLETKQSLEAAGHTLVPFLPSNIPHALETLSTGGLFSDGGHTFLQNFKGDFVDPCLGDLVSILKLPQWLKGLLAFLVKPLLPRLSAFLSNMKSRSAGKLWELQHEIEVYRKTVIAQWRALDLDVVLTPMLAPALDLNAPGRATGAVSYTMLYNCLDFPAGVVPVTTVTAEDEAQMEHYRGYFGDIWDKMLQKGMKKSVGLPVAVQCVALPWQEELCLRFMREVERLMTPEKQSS", "assay": "Human FAAH lysate assay (CHO cell lysate expressing FAAH, AAMCA or 3H-anandamide hydrolysis)", "type": "biochemical", "details": "B series; read-out: Human FAAH lysate assay: IC50", "description": "(§1) To assist in assay development stable cell lines for human, murine and rat full length FAAH were developed. […] The full length FAAH was subcloned into the mammalian expression vector, peDEF.neo, using XbaI and EcoRI restriction sites and used for stable cell line generation.\n(§2) CHO cells expressing FAAH were used to prepare either crude cell lysate or microsome fractions. To harvest cells, tissue culture media was decanted, the monolayer washed three times with Ca^++Mg^++ free PBS and cells recovered after […] in enzyme free dissociation media (Millipore Corp, Billerica, Mass.). Cells were collected by centrifuging at 2000 rpm for 15 min. and the cell pellet re-suspended with 50 mM HEPES (pH 7.4) containing 1 mM EDTA and the protease inhibitors aprotinin (1 mg/ml) and leupeptin (100 μM). The suspension was sonicated at 4° C. and the cell lysate recovered after centrifuging at 12,000×g (14,600 rpm, SS34 rotor) for 20 min at 4° C. to form a crude pellet of cell debris, nuclei, peroxisomes, lysosomes, and mitochondria; the supernatant or cell lysate was used for FAAH enzyme assay. In some cases, microsomes fractions enriched in FAAH were prepared by centrifuging the cell lysate further at 27,000 rpm (100,000×g) in SW28 rotor for 50 minutes at 4° C. The pellet containing FAAH-enriched microsomes was re-suspend in 50 mM HEPES, (pH 7,4) 1 mM EDTA, and any remaining DNA sheared by passage of material through a 23 gauge needle and aliquots of enzyme were store at −80° C. prior to use.\n(§3) Assays are performed on either cell lysate or microsome fractions prepared as described or in whole cell format employing either the fluorescent substrate AAMCA (Cayman chemical, Ann Arbor, Mich.,) or ^3H-anandamide ([ETHANOLAMINE-1-3H] American Radiolabeled Chemicals; 1 mCi/ml). The cell lysate or microsome assay is performed in Costar black wall, clear bottom plates by adding FAAH_CHO (whole cell, cell lysate or microsome) in assay buffer (50 mM Phosphate, pH 8.0, 1 mM EDTA, 200 mM KCl, 0.2% glycerol, 0.1% fatty acid free BSA) to each well, followed by either DMSO or compound and allowed to incubate at 22-25° C. for fifteen minutes. AAMCA substrate was used to achieve a final concentration of 1 μM and reaction allowed to proceed at room temperature for 1-3 hours. […] Whole cell assay is conducted with cells harvested after rinsing tissue culture flasks three times with Ca^++Mg^++ free PBS, incubating for 10 mm in Enzyme free dissociation media and centrifuging for 5 minutes at 1,000 rpm in table top centrifuge. Cells are resuspended in assay buffer at desired cell number in (4×10^4 cells/assay in 96-well format; 1×10^4 cells/assay in 384-well format) and assayed as described.\n(§4) Alternatively, assays are performed using anandamide [ethanolamine 1-^3H] (specific activity of 10 Ci/mmol) diluted with cold anandamide to achieve a final assay concentration of 1 μM anandamide (˜50,000 cpm). Enzyme (CHO cell lysate, brain or liver homogenate) is incubated in assay buffer (50 mM Phosphate, pH 8.0, 1 mM EDTA, 200 mM KCl, 0.2% glycerol, 0.1% fatty acid free BSA) with inhibitor at 25° C. for 30 minutes. The reaction was terminated by addition of 2 volumes of chloroform:methanol (1:1) and mixed by vortexing. Following a centrifugation step, 2000 rpm for 10 min. at room temperature, the aqueous phase containing the released […] was recovered and quantitated by liquid scintillation as a reflection of FAAH enzyme activity.", "units": {"IC50": "nM"}}
{"smiles": "CN(C)C(=O)C1CC1c1ccc(-c2ncn(C)c2Sc2ccc(Cl)cn2)cc1", "note": "(stereo not drawn) [Example 1B, 2-(4-{5[(5-Chloropyridin-2yl-)thio]-1-methyl-1H-imidazol-4-yl}phenyl)-N,N-dimethylcyclopropanecarboxamide]", "IC50": 1.4}
{"smiles": "CN(C)C(=O)[C@H]1C[C@@H]1c1ccc(-c2ncn(C)c2Sc2ccc(Cl)cn2)cc1", "note": "[Example 5B, (1S,2S)-2-(4-{5-[(5-Chloropyridin-2-yl)thio]-1-methyl-1H-imidazol-4-yl}phenyl)-N,N-dimethylcyclopropanecarboxamide]", "IC50": 1}
{"smiles": "CN(C)C(=O)[C@H]1C[C@@H]1c1ccc(-c2ncn(C)c2Sc2ccc(Cl)cc2)cc1", "note": "[Example 9B]", "IC50": 0.3}
{"smiles": "CN(CCF)C(=O)[C@H]1C[C@@H]1c1ccc(-c2ncn(C)c2Sc2ccc(Cl)cn2)cc1", "note": "[Example 11B, (1S,2S)-2-(4-{5-[(5-Chloropyridin-2-yl)thio]-1-methyl-1H-imidazol-4-yl}phenyl)-N-(2-fluoroethyl)-N-methylcyclopropanecarboxamide]", "IC50": 3}
{"smiles": "Cc1nc(-c2ccc([C@@H]3C[C@H]3C(=O)N(C)C)cc2)c(Sc2ccc(Cl)cn2)n1C", "note": "[Example 12B, (1R,2R)-2-(4-{5-[(5-Chloropyridin-2-yl)thio]-1,2-dimethyl-1H-imidazol-4-yl}phenyl)-N,N-dimethylcyclopropanecarboxamide]", "IC50": 13.6}
{"smiles": "CN(C)C(=O)C1CC1c1ccc(-c2nc(C3CC3)n(C)c2Sc2ccc(Cl)cn2)cc1", "note": "(stereo not drawn) [Example 13B, 5-[(5-Chloropyridin-2-yl)thio]-2-cyclopropyl-4-(4-{2-[(dimethylamino)carbonyl]cyclopropyl}phenyl)-1-methyl-1H-imidazol-3-ium trifluoroacetate]", "IC50": 48.3}
{"smiles": "CN(C)C(=O)[C@H]1C[C@@H]1c1ccc(-c2ncn(CCF)c2Sc2ccc(Cl)cn2)cc1", "note": "[Example 14B, 5-[(5-Chloropyridin-2-yl)thio]-4-(4-{(1S,2S)-2-[(dimethylamino)carbonyl]cyclopropyl}phenyl)-1-(2-fluoroethyl)-1H-imidazol-3-ium trifluoroacetate]", "IC50": 3.2}
{"smiles": "Cn1cnc(-c2ccc([C@H]3C[C@@H]3c3n[nH]c(=O)o3)cc2)c1Sc1ccc(Cl)cn1", "note": "[Example 17B, 5-[(1S,2S)-2-(4-{5-[(5-Chloropyridin-2-yl)thio]-1-methyl-1H-imidazol-4-yl}phenyl)cyclopropyl]-1,3,4-oxadiazol-2(3H)-one]", "IC50": 4.5}
{"smiles": "COc1nnc([C@H]2C[C@@H]2c2ccc(-c3ncn(C)c3Sc3ccc(Cl)cn3)cc2)o1", "note": "[Example 18B, 5-Chloro-2-[(4-{4-[(1S,2S)-2-(5-methoxy-1,3,4-oxadiazol-2-yl)cyclopropyl]phenyl}-1-methyl-1H-imidazol-5-yl)thio]pyridine]", "IC50": 15.6}
{"smiles": "Cc1nnc([C@H]2C[C@@H]2c2ccc(-c3ncn(C)c3Sc3ccc(Cl)cn3)cc2)o1", "note": "[Example 19B, 5-Chloro-2-[(1-methyl-4-{4-[(1S,2S)-2-(5-methyl-1,3,4-oxadiazol-2-yl)cyclopropyl]phenyl}-1H-imidazol-5-yl)thio]pyridine]", "IC50": 46}
{"smiles": "CN(C)C(=O)[C@H]1C[C@@H]1c1ccc(-c2nc[nH]c2Sc2ccc(Cl)cn2)cc1", "note": "[Example 20B, (1S,2S)-2-(4-{5-[(5-Chloropyridin-2-yl)thio]-1H-imidazol-4-yl}phenyl)-N,N-dimethylcyclopropanecarboxamide]", "IC50": 650}
{"smiles": "COC(=O)[C@H]1C[C@@H]1c1ccc(-c2ncn(C)c2Sc2ccc(Cl)cn2)cc1", "note": "[Example 21B, Methyl (1S,2S)-2-(4-{5-[(5-chloropyridin-2-yl)thio]-1-methyl-1H-imidazol-4-yl}phenyl)cyclopropanecarboxylate]", "IC50": 0.2}
{"smiles": "Cn1cnc(-c2ccc([C@H]3C[C@@H]3C(C)(C)O)cc2)c1Sc1ccc(Cl)cn1", "note": "[Example 22B, 2-[(1S,2S)-2-(4-{5-[(5-Chloropyridin-2-yl)thio]-1-methyl-1H-imidazol-4-yl}phenyl)cyclopropyl]propan-2-ol]", "IC50": 8.7}
{"smiles": "Cn1cnc(-c2ccc([C@H]3C[C@@H]3CO)cc2)c1Sc1ccc(Cl)cn1", "note": "[Example 23B, [(1S,2S)-2-(4-{5-[(5-Chloropyridin-2-yl)thio]-1-methyl-1H-imidazol-4-yl}phenyl)cyclopropyl]methanol]", "IC50": 88.4}
{"smiles": "COC[C@H]1C[C@@H]1c1ccc(-c2ncn(C)c2Sc2ccc(Cl)cn2)cc1", "note": "[Example 24B, 5-Chloro-2-[(4-{4-[(1S,2S)-2-(methoxymethyl)cyclopropyl]phenyl}-1-methyl-1H-imidazol-5-yl)thio]pyridine]", "IC50": 35.5}
{"smiles": "Cn1cnc(-c2ccc([C@H]3C[C@@H]3COCCF)cc2)c1Sc1ccc(Cl)cn1", "note": "[Example 25B, 5-Chloro-2-{[4-(4-{(1S,2S)-2-[(2-fluoroethoxy)methyl]cyclopropyl}phenyl)-1-methyl-1H-imidazol-5-yl]thio}pyridine]", "IC50": 69.3}
{"smiles": "Cn1cnc(-c2ccc([C@H]3C[C@@H]3c3n[nH]c(=S)o3)cc2)c1Sc1ccc(Cl)cn1", "note": "[Example 31B, 5-[(1S,2S)-2-(4-{5-[(5-chloropyridin-2-yl)thio]-1-methyl-1H-imidazol-4-yl}phenyl)cyclopropyl]-1,3,4-oxadiazole-2(3H)-thione]", "IC50": 677}
{"smiles": "Cn1cnc(-c2ccc([C@H]3C[C@@H]3c3n[nH]c(=S)[nH]3)cc2)c1Sc1ccc(Cl)cn1", "note": "[Example 32B, 5-[(1S,2S)-2-(4-{5-[(5-chloropyridin-2-yl)thio]-1-methyl-1H-imidazol-4-yl}phenyl)cyclopropyl]-2,4-dihydro-3H-1,2,4-triazole-3-thione]", "IC50": 304}
{"smiles": "Cn1cnc(-c2ccc([C@H]3C[C@@H]3c3n[nH]c(=O)[nH]3)cc2)c1Sc1ccc(Cl)cn1", "note": "[Example 33B, 5-[(1S,2S)-2-(4-{5-[(5-chloropyridin-2-yl)thio]-1-methyl-1H-imidazol-4-yl}phenyl)cyclopropyl]-2,4-dihydro-3H-1,2,4-triazol-3-one]", "IC50": 545}
{"target": "T1, Human FAAH", "assay": "Human FAAH lysate assay (CHO cell lysate expressing FAAH, AAMCA or 3H-anandamide hydrolysis)", "type": "biochemical", "details": "tables of the B series; read-out: hFAAH lysate IC50", "description": "as §1, §2, §3, §4", "units": {"IC50": "nM"}}
{"smiles": "CC(C)NC(=O)C1CC1c1ccc(-c2ncn(C)c2Sc2ccc(Cl)cn2)cc1", "note": "(stereo not drawn) [Example 2B]", "IC50": 6.3}
{"smiles": "CNC(=O)C1CC1c1ccc(-c2ncn(C)c2Sc2ccc(Cl)cn2)cc1", "note": "(stereo not drawn) [Example 3B]", "IC50": 1.4}
{"smiles": "Cn1cnc(-c2ccc(C3CC3C(N)=O)cc2)c1Sc1ccc(Cl)cn1", "note": "(stereo not drawn) [Example 4B]", "IC50": 2.6}
{"smiles": "CNC(=O)[C@H]1C[C@@H]1c1ccc(-c2ncn(C)c2Sc2ccc(Cl)cn2)cc1", "note": "[Example 6B]", "IC50": 1.1}
{"smiles": "Cn1cnc(-c2ccc([C@H]3C[C@@H]3C(N)=O)cc2)c1Sc1ccc(Cl)cn1", "note": "[Example 7B]", "IC50": 3.3}
{"smiles": "Cn1cnc(-c2ccc([C@H]3C[C@@H]3C(=O)NC(C)(C)C)cc2)c1Sc1ccc(Cl)cn1", "note": "[Example 8B]", "IC50": 196}
{"smiles": "CNC(=O)[C@H]1C[C@@H]1c1ccc(-c2ncn(CCF)c2Sc2ccc(Cl)cn2)cc1", "note": "[Example 15B]", "IC50": 5.8}
{"smiles": "NC(=O)[C@H]1C[C@@H]1c1ccc(-c2ncn(CCF)c2Sc2ccc(Cl)cn2)cc1", "note": "[Example 16B]", "IC50": 12.7}
